The values below come from ChEMBL document CHEMBL4354793, “Current and emerging therapeutic targets of alzheimer's disease for the design of multi-target directed ligands” (Medchemcomm, 2019).

Common to all, as to format: functional
For assay [1], the system named is Mus musculus. As to the kind of experiment: In vivo inhibition of AChE in po dosed mouse brain relative to control.
Assay [2] concerns Rattus norvegicus. Kind of assay: In vivo inhibition of AChE in po dosed rat brain relative to control.
Assay [3] deals with Oryctolagus cuniculus. Kind of assay: In vivo inhibition of AChE in po dosed rabbit brain relative to control.
The subject of assay [4] is Mus musculus. Kind of assay: In vivo inhibition of MAO-B in po dosed mouse brain relative to control.
For assay [5], the system named is Rattus norvegicus. As to the kind of experiment: In vivo inhibition of MAO-B in po dosed rat brain relative to control.
Assay [6] deals with Oryctolagus cuniculus. As to the kind of experiment: In vivo inhibition of MAO-B in po dosed rabbit brain relative to control.

In the case of `C#CCN[C@@H]1CCc2ccc(OC(=O)N(C)CC)cc21` [LADOSTIGIL], the “inhibition (INH)” value is given as 25 - 40% in the assay on Mus musculus [1]; 25 - 40% in the assay on Rattus norvegicus [2]; 25 - 40% in the assay with Oryctolagus cuniculus [3]; 70 - 90% in the assay on Mus musculus [4]; 70 - 90% in the assay on Rattus norvegicus [5]; 70 - 90% in the assay on Oryctolagus cuniculus [6].
